# Calls of active or inactive are those of the source. The calls are words filed in the database; no cut-off is given here.
# Tests used:
# [1] = target: T1, Glutaminase kidney isoform, mitochondrial (Homo sapiens, UniProt O94925); assay: Inhibition of GLS1 (unknown origin)
# T1 sequence (O94925 whole entry): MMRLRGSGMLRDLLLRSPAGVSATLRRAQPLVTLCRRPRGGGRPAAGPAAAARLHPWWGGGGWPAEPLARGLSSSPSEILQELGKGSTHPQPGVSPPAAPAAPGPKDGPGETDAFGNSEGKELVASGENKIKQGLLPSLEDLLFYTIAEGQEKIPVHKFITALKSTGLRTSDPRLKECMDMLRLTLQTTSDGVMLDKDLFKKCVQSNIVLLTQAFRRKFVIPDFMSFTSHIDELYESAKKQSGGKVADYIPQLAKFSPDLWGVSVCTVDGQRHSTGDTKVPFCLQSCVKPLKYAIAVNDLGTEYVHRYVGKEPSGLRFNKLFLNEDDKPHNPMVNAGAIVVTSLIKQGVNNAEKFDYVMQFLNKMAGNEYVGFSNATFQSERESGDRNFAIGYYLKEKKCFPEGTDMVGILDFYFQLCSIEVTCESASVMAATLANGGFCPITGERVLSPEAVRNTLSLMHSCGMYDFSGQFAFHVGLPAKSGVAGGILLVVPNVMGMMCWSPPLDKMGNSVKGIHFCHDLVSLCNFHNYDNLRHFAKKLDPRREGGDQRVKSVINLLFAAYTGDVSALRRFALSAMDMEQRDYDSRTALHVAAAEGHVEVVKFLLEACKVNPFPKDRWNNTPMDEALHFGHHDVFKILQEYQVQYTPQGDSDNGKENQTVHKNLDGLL
# [2] = target: T2, Glutaminase liver isoform, mitochondrial (Homo sapiens, UniProt Q9UI32); assay: Inhibition of GLS2 (unknown origin)
# T2 sequence (Q9UI32 whole entry): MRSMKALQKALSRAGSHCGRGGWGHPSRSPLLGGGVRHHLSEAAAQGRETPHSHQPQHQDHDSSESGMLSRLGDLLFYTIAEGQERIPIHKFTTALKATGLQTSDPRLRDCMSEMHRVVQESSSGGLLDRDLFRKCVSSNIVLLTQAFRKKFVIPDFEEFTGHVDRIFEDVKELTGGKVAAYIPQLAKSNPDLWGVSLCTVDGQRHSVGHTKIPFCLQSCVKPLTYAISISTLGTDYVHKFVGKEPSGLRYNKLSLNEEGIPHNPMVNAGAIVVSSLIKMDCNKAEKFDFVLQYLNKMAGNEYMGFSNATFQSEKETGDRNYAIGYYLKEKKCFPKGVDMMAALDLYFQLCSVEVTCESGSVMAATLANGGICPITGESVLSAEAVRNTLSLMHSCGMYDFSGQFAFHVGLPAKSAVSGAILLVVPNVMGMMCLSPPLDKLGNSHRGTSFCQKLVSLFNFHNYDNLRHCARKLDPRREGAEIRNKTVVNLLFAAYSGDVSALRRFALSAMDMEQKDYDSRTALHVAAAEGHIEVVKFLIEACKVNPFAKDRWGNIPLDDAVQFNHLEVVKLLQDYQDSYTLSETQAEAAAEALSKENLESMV
# [3] = species: Homo sapiens; assay: Selectivity ratio of IC50 for GLS2 (unknown origin) to IC50 for GLS1 (unknown origin)
# [4] = test system: A549; assay: Inhibition of glutaminase in human A549 cells assessed as ratio of glutamine to glutamate level (Rv b= 0.45 +/- 0.011); assay type: cell-based
# [5] = Terminal half life in rat at 3 mg/kg, iv; assay type: ADME, organism-based; settings: in vivo, read-out: beta t1/2 (converted)
# [6] = Clearance in rat at 3 mg/kg, iv; assay type: ADME, organism-based; settings: in vivo
# [7] = Clearance in rat at 3 mg/kg, po; assay type: ADME, organism-based; settings: in vivo
# [8] = AUC(0 to t) in rat at 3 mg/kg, po; assay type: ADME, organism-based; parameters: dose 3 mg/kg, route po; settings: in vivo
# [9] = Oral bioavailability in rat at 3 mg/kg; assay type: ADME, organism-based; settings: in vivo
# [10] = test system: HCT-116; assay: Antitumor activity against human HCT-116 cells xenografted in mouse model assessed as tumor growth inhibition at 100 mg/kg once daily via oral gavage administered for 28 days relative to control; assay type: functional; parameters: scale not given: the % may be the effect or the level left; settings: time 28 day
# [11] = test system: A549; assay: Inhibition of colony formation in human A549 cells at 2 to 8 uM; assay type: functional, cell-based; settings: dose 2-8 µM
# [12] = test system: HCT-116; assay: Inhibition of colony formation in human HCT-116 cells at 2 to 8 uM; assay type: functional, cell-based; settings: dose 2-8 µM
# [13] = test system: A549; assay: Induction of cell cycle arrest in human A549 cells assessed as accumulation of cells at G0/G1 phase at 200 nM incubated for 48 hrs by propidium iodide staining based flow cytometry analysis (Rvb=61.61%); assay type: functional
# [14] = test system: A549; assay: Induction of cell cycle arrest in human A549 cells assessed as accumulation of cells at G0/G1 phase at 400 nM incubated for 48 hrs by propidium iodide staining based flow cytometry analysis (Rvb=61.61%); assay type: functional
# [15] = test system: A549; assay: Induction of cell cycle arrest in human A549 cells assessed as accumulation of cells at G0/G1 phase at 800 nM incubated for 48 hrs by propidium iodide staining based flow cytometry analysis (Rvb=61.61%); assay type: functional
# [16] = test system: A549; assay: Induction of cell cycle arrest in human A549 cells assessed as accumulation of cells at G2/M phase at 400 nM incubated for 48 hrs by propidium iodide staining based flow cytometry analysis (Rvb=23.88%); assay type: functional
# [17] = test system: A549; assay: Induction of cell cycle arrest in human A549 cells assessed as accumulation of cells at S phase at 50 nM incubated for 48 hrs by propidium iodide staining based flow cytometry analysis (Rvb=14.51%); assay type: functional
# [18] = test system: A549; assay: Induction of cell cycle arrest in human A549 cells assessed as accumulation of cells at S phase at 200 nM incubated for 48 hrs by propidium iodide staining based flow cytometry analysis (Rvb=14.51%); assay type: functional
# [19] = test system: A549; assay: Induction of cell cycle arrest in human A549 cells assessed as accumulation of cells at S phase at 400 nM incubated for 48 hrs by propidium iodide staining based flow cytometry analysis (Rvb=14.51%); assay type: functional
# [20] = test system: A549; assay: Induction of intracellular ROS production in human A549 cells by DCFH-DA staining based fluorescence microscopic analysis; assay type: functional, cell-based; settings: dose 1-10 µM
# [21] = test system: HCT-116; assay: Induction of intracellular ROS production in human HCT-116 cells by DCFH-DA staining based fluorescence microscopic analysis; assay type: functional, cell-based; settings: dose 1-10 µM
# [22] = test system: A549; assay: Induction of apoptosis in human A549 cells assessed as early apoptotic cells at 5 uM incubated for 48 hrs by annexin V-FITC and propidium iodide based flow cytometry analysis (Rvb =12.289%); assay type: functional
# [23] = test system: A549; assay: Induction of apoptosis in human A549 cells assessed as early apoptotic cells at 10 uM incubated for 48 hrs by annexin V-FITC and propidium iodide based flow cytometry analysis (Rvb =12.289%); assay type: functional
# [24] = test system: A549; assay: Induction of apoptosis in human A549 cells assessed as late apoptotic cells at 1 uM incubated for 48 hrs by annexin V-FITC and propidium iodide based flow cytometry analysis (Rvb =9.696%); assay type: functional
# [25] = human, microsomes
# Description: Metabolic stability in human liver microsome assessed as intrinsic clearance
# [26] = test system: HCT-116; assay: cells; settings: Homo sapiens
# [27] = in vitro; settings: human, liver microsomes
compound,measurement,setting,value
CCCCCCN1CCC(CNC(=O)c2cccc(COCCC3CCN(c4nnc(NC(=O)Cc5ccccc5)s4)CC3)c2)CC1,IC50,[1],0.068 µM
same,IC50,[2],> 15 µM
same,Ratio IC50,[3],> 100
same,Ratio,[4],1.32
same,half-life,[5],9.9 h
same,CL,[6],102 mL/min/kg
same,CL,[7],557 mL/min/kg
same,AUCt,[8],251.6 ng·h/mL
same,F,[9],12.4%
same,Activity,[10],42%
same,inhibition,[11],Active
same,inhibition,[12],Active
same,Activity,[13],66.93%
same,Activity,[14],67.53%
same,Activity,[15],68.55%
same,Activity,[16],18.77%
same,Activity,[17],13.17%
same,Activity,[18],13.34%
same,Activity,[19],13.76%
same,Activity,[20],Dose-Dependent Effect
same,Activity,[21],Dose-Dependent Effect
same,Activity,[22],20.673%
same,Activity,[23],16.025%
same,Activity,[24],7.018%
same,CLH,[25],15.6 g/mL/min
same,IC50,[26],0.42 µM
same,half-life,[27],> 2 h

# Source: ChEMBL document CHEMBL5352409, “Design, synthesis, and pharmacological evaluation of 2-(1-(1,3,4-thiadiazol-2-yl)piperidin-4-yl)ethan-1-ol analogs as novel glutaminase 1 inhibitors” (Eur J Med Chem, 2022)
